# Reference: patent US7527942B2, “Transcription amplification system for molecular imaging” (The Regents of the University of California, priority 2002, dated 2009)
# Assays:
# [1] = human subjects; cited from earlier work
# LNCaP cells = assay: Co-transfection luciferase assay with 10 nM R1881 (Example 2); type: cell-based, human; conditions: charcoal-stripped serum
# Procedure: We performed transient transfections 24 hours later using Tfx-50 (Promega) with a lipid:DNA ratio of 4:1. Each transfection mixture contained 0.5 μg of the effector and reporter plasmids or reporter plasmid alone with pGL3B carrier DNA. Methylenetrienolone (R1881; NEN Life Science Products, Boston, Mass.) was added to the medium at a concentration of 10 nM/well one hour following transfection, and the cells were incubated for 48 h. The cells were harvested and lysed using the passive lysis buffer provided in the assay kit for measuring FL activities (Dual-Reporter Luciferase Assay System, Promega).
compound,measurement,setting,value
"Nc1nc(=O)c2ncn(CCC(CO)C[18F])c2[nH]1 (stereo not drawn) [[^18F]FHBG, 9-(4-[18F]-fluoro-3-hydroxymethylbutyl)guanine]",blood-brain-barrier penetration,[1],does not significantly cross the blood-brain-barrier
"O=c1[nH]c(=O)n([C@@H]2O[C@H](CO)[C@@H](O)[C@@H]2F)cc1[125I] [[^124I]FIAU, 2′-fluoro-2′-deoxy-1-β-D-arabinofuranosyl-5-iodo-uracil]",blood-brain-barrier penetration,[1],cannot penetrate the blood brain barrier
"CC(O)(CS(=O)(=O)c1ccc(F)cc1)C(=O)Nc1ccc(C#N)c(C(F)(F)F)c1 (stereo not drawn) [casodex, reference compound]",basal activity of the PSA enhancer constructs,LNCaP cells,further reduced
